Reference: patent US20260027125A1, “AN ANTIBACTERIAL PARENTERAL FORMULATION AND METHODS THEREOF” (BUGWORKS RESEARCH INDIA PVT. LTD., priority 2022, published 2026)
Structures can show the parent of a compound that is named as a salt.

How the values were obtained:
[1] = system: Mycoplasma species (atypical); assay: microbe, parasite or virus in culture; type: cell-based
Morganella morgannii = assay: microbe, parasite or virus in culture; type: cell-based
Bacillus anthracis = assay: microbe, parasite or virus in culture; type: cell-based
[2] = system: Burkholderia cepacia species; assay: microbe, parasite or virus in culture; type: cell-based
Streptococcus pneumoniae = assay: microbe, parasite or virus in culture; type: cell-based
Burkholderia mallei = assay: microbe, parasite or virus in culture; type: cell-based
Streptococcus pyogenes = assay: microbe, parasite or virus in culture; type: cell-based
[3] = system: Bacteroides fragilis (anaerobe); assay: microbe, parasite or virus in culture; type: cell-based
Klebsiella pneumoniae = assay: microbe, parasite or virus in culture; type: cell-based
[4] = system: Ureaplasma species (atypical); assay: microbe, parasite or virus in culture; type: cell-based
[5] = Photostability study (ICH-Q1B); type: physicochemical; conditions: ICH-Q1B illumination
[6] = system: Proteus mirabilis, vulgaris; assay: microbe, parasite or virus in culture; type: cell-based
[7] = Solubility enhancement trials; type: physicochemical
Protocol: All observations were recorded once the solution temperature reached to 25° C.-30° C.

[8] = system: Burkholderia pseudomallei; assay: microbe, parasite or virus in culture; type: cell-based
Pseudomonas aeruginosa = assay: microbe, parasite or virus in culture; type: cell-based
Citrobacter freundii = assay: microbe, parasite or virus in culture; type: cell-based
Enterobacter cloacae = assay: microbe, parasite or virus in culture; type: cell-based
Yersinia pestis = assay: microbe, parasite or virus in culture; type: cell-based
[9] = Burkholderia cepacia species clinical isolates, N 75

Cn1c(=O)ccc2ccc(F)c(CCNC[C@H]3CN(c4cnc5c(n4)NC(=O)CO5)C(=O)O3)c21 [compound of Formula (I) formate salt, (S)-6-(5-(((2-(7-fluoro-1-methyl-2-oxo-1,2-dihydroquinolin-8-yl)ethyl)amino)methyl)-2-oxooxazolidin-3-yl)-2H-pyrazino[2,3-b][1,4]oxazin-3(4H)-one formate]
MIC Range, high end [1]: ≤0.015 mg/L | MIC Range, low end [1]: ≤0.015 mg/L | MIC50 ([1]; Mycoplasma leachii): ≤ 0.015 mg/L | MIC90 ([1]; Mycoplasma leachii): ≤ 0.015 mg/L | MIC Range, high end (Morganella morgannii): 8 mg/L | MIC Range, low end (Morganella morgannii): ≤0.015 mg/L | MIC50 (Morganella morgannii; Morganella): 0.12 mg/L | MIC90 (Morganella morgannii; Morganella): 0.5 mg/L | MIC50 (Bacillus anthracis): ≤ 0.015 mg/L | MIC90 (Bacillus anthracis): ≤ 0.015 mg/L | MIC Range, high end (Bacillus anthracis; N 42 strains): ≤0.015 mg/L | MIC Range, low end (Bacillus anthracis; N 42 strains): ≤0.015 mg/L | MIC50 ([2]; Burkholderia cepacia): 0.06 mg/L | MIC90 ([2]; Burkholderia cepacia): 0.5 mg/L | MIC Range, high end [2, 9]: 2 mg/L | MIC Range, low end [2, 9]: 0.03 mg/L | MIC Range, high end (Helicobacter pylori): 0.5 mg/L | MIC Range, low end (Helicobacter pylori): ≤0.015 mg/L | MIC Range, high end (Streptococcus pneumoniae): 0.06 mg/L | MIC Range, low end (Streptococcus pneumoniae): 0.03 mg/L | MIC50 (Streptococcus pneumoniae; Streptococcus pneumoniae): 0.03 mg/L | MIC90 (Streptococcus pneumoniae; Streptococcus pneumoniae): 0.03 mg/L | MIC50 (Burkholderia mallei): 0.25 mg/L | MIC90 (Burkholderia mallei): 1 mg/L | MIC Range, high end (Burkholderia mallei; N 36 strains): 4 mg/L | MIC Range, low end (Burkholderia mallei; N 36 strains): ≤0.015 mg/L | MIC Range, high end (Streptococcus pyogenes): 0.06 mg/L | MIC Range, low end (Streptococcus pyogenes): 0.03 mg/L | MIC50 (Streptococcus pyogenes; Streptococcus pyogenes): 0.03 mg/L | MIC90 (Streptococcus pyogenes; Streptococcus pyogenes): 0.03 mg/L | MIC Range, high end [3]: 8 mg/L | MIC Range, low end [3]: ≤0.015 mg/L | MIC50 ([3]; Bacteroides fragilis): 0.06 mg/L | MIC90 ([3]; Bacteroides fragilis): 0.25 mg/L | MIC Range, high end (Klebsiella pneumoniae): 32 mg/L | MIC Range, low end (Klebsiella pneumoniae): 0.03 mg/L | MIC50 (Klebsiella pneumoniae; Klebsiella pneumoniae): 0.5 mg/L | MIC90 (Klebsiella pneumoniae; Klebsiella pneumoniae): 2 mg/L | MIC Range, high end [4]: 0.03 mg/L | MIC Range, low end [4]: ≤0.015 mg/L | MIC50 ([4]; Ureaplasma): ≤ 0.015 mg/L | MIC90 ([4]; Ureaplasma): ≤ 0.015 mg/L | sensitivity to light [5]: sensitive to light | MIC Range, high end [6]: 2 mg/L | MIC Range, low end [6]: 0.03 mg/L | MIC50 ([6]; Proteus mirabilis): 0.12 mg/L | MIC90 ([6]; Proteus mirabilis): 0.5 mg/L | pH ([7]; Sr. No. 2: 7.5% Citric acid solution): 1.96 | pH ([7]; Sr. No. 6: 7.5% Citric acid + 20% HPβ-CD): 1.94 | pH ([7]; Sr. No. 9: 10% Ascorbic acid + 1% PVP K-12 + 20% HPβ-CD): 2.9 | pH ([7]; Sr. No. 10: 5% Ascorbic acid + 2% PVP K-12 + 20% HPβ-CD): 3.19 | pH ([7]; Sr. No. 11: 7.5% Ascorbic acid + 2% PVP K-12 + 20% HPβ-CD): 3.08 | pH ([7]; Sr. No. 12: 7.5% Ascorbic acid + 1% PVP K-12 + 20% HPβ-CD): 3.07 | pH ([7]; Sr. No. 13: 5% Ascorbic acid + […] Lactic acid + 1% PVP K-12 + 20% HPβ-CD): 2.88 | pH ([7]; Sr. No. 14: 5% Ascorbic acid + 1% PVP K-12 + 30% HPβ-CD): 3.25 | pH ([7]; Sr. No. 15: 7.5% Ascorbic acid + 1% PVP K-12 + 30% HPβ-CD): 3.15 | pH ([7]; Sr. No. 17: 10% Ascorbic acid + 1% PVP K-12 + 30% HPβ-CD): 3.03 | pH ([7]; Sr. No. 18: 7% Ascorbic acid + […] Acetic acid + 1% PVP K-12 + 30% HPβ-CD): 3.06 | pH ([7]; Sr. No. 19: 7% Ascorbic acid + 0.9% Glycine + 30% HPβ-CD): 3.25 | pH ([7]; Sr. No. 20: 7% Ascorbic acid + […] Acetic acid + 0.9% Glycine + 30% HPβ-CD): 3.16 | pH ([7]; Sr. No. 21: 7% Ascorbic acid + […] lactic acid + 1% PVP K-12 + 30% HPβ-CD): 2.91 | pH ([7]; Sr. No. 22: 6% Ascorbic acid + […] Acetic acid + […] lactic acid + 1% PVP K-12 + 30% HPβ-CD): 2.84 | pH ([7]; Sr. No. 23: Acetate Buffer (200 mM, pH 3.0) + 6% Ascorbic acid + […] lactic acid + 1% PVP K-12 + 30% HPβ-CD): 2.78 | pH ([7]; Sr. No. 24: 5% Ascorbic acid + […] Acetic acid + […] lactic acid + 1% PVP K-12 + 30% HPβ-CD, pH adjusted by L-Arginine Solution): 3.73 | MIC50 [8]: 0.25 mg/L | MIC90 [8]: 0.5 mg/L | MIC Range, high end ([8]; N 40 strains): 4 mg/L | MIC Range, low end ([8]; N 40 strains): ≤0.015 mg/L | MIC Range, high end (Pseudomonas aeruginosa): 8 mg/L | MIC Range, low end (Pseudomonas aeruginosa): <0.015 mg/L | MIC50 (Pseudomonas aeruginosa; Pseudomonas aeruginosa): 0.5 mg/L | MIC90 (Pseudomonas aeruginosa; Pseudomonas aeruginosa): 1 mg/L | MIC Range, high end (Citrobacter freundii): 8 mg/L | MIC Range, low end (Citrobacter freundii): 0.03 mg/L | MIC50 (Citrobacter freundii; Citrobacter freundii): 0.25 mg/L | MIC90 (Citrobacter freundii; Citrobacter freundii): 1 mg/L | MIC Range, high end (Enterobacter cloacae): 32 mg/L | MIC Range, low end (Enterobacter cloacae): ≤0.015 mg/L | MIC50 (Enterobacter cloacae; Enterobacter cloacae): 0.25 mg/L | MIC90 (Enterobacter cloacae; Enterobacter cloacae): 1 mg/L | MIC50 (Yersinia pestis): ≤ 0.015 mg/L | MIC90 (Yersinia pestis): ≤ 0.015 mg/L | MIC Range, high end (Yersinia pestis; N 35 strains): ≤0.015 mg/L | MIC Range, low end (Yersinia pestis; N 35 strains): ≤0.015 mg/L
